Measurements from patent publication US20250206761A1, “HALOINDOLE MACROCYCLIC COMPOUNDS FOR THE TREATMENT OF CANCER” (Hoffmann-La Roche Inc., priority 2022, published 2025).
Read-outs that look alike come from different tables or passages of the source.

What was measured:
[1] = ester bond, EDCI/HOBt/DIEA, DCM
[2] = target: KRAS G12V binding to BRAF (Homo sapiens (Human), UniProt P01116+P62937, G12V); test: KRAS-BRAF with CYPA (500 nM) interaction assay (TR-FRET), G12V; type: biochemical
In short: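 A TR-FRET assay measured how compound, in the presence of CYPA, disrupts binding of GMPPNP-loaded 6His-KRAS G12V to BRAF. The buffer contained 25 mM HEPES PH=7.4, 0.002% Tween20, 0.1% BSA, 100 mM NaCl, 5 mM MgCl2 and 10 μM GMPPNP. Compounds ran as a 16-point 3-fold dilution series from 10 μM for 3 hours.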

[3] = system: cryopreserved suspension hepatocytes from human; test: Human hepatocyte stability assay; type: in vitro ADME; settings: for Clearance Category: human hepatocytes; for CL_hep (Human): human hepatocytes 1×10^6 cells/mL, 37° C.
Method: The hepatocyte stability assay measures the rate of disappearance of a compound from incubations with cryopreserved suspension hepatocytes from human. Positive controls, including Midazolam, Raloxifene and Dextromethorphan, are included in every experiment. Incubations consist of […] tested compound and suspension of human hepatocytes (1×10^6 cells/mL) in supplemented Williams' E Medium with 10% FBS and 0.5% Penicillin-streptomycin. The hepatocyte suspension was incubated with intermittent shaking 900 rpm at 37° C., in a 5% CO2 incubator. The reaction was stopped by adding methanol containing internal standard (2 μM Tolbutamide) at 2, 10, 20, 40, 60 and 120 minutes after compound addition, depletion of the parent compound was monitored by LC-MS/MS analysis.

KRAS G12C-BRAF complex [4] = target: T1, KRAS G12C-BRAF complex (Homo sapiens (Human), UniProt P01116+P62937, G12C); test: KRAS-BRAF with CYPA (500 nM) interaction assay (TR-FRET), G12C; type: biochemical
[5] = system: NCI-H358 (ATCC-CRL5807) cells; test: Cell viability assay, G12C (NCI-H358); type: cell-based, human; settings: Homo sapiens; KRAS cell viability, NCI-H358, 72 hrs, Cell Counting Kit-8
In short: (§1)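 After overnight attachment, cells received compounds (0.5% DMSO) for 72 hrs; viability was then quantified with CCK-8, reading OD450 minus OD650, and IC50 values were obtained from a 4-parameter concentration-response fit.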

[6] = system: phosphorylation of ERK, KRAS G12C in NCJ-H358 cells; test: pERK inhibition assay, KRAS G12C; type: cell-based, human; settings: Homo sapiens, 4 hours
In short: (§2)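 Seeding densities differed per line: 30,000/well for NCJ-H358 and SW620, 20,000/well for AGS, all in RPMI-1640 plus 10% FBS. After attachment overnight, compound was applied for 4 h. Phospho-ERK was then quantified by in-cell ELISA (OD450), with IC50 fitted sigmoidally.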

[7] = system: phosphorylation of ERK, KRAS G12D in AGS cells; test: pERK inhibition assay, KRAS G12D; type: cell-based, human; settings: Homo sapiens, 4 hours
In short: as §2

[8] = target: KRAS G12D binding to BRAF (Homo sapiens (Human), UniProt P01116+P62937, G12D); test: KRAS-BRAF with CYPA (500 nM) interaction assay (TR-FRET), G12D; type: biochemical
[9] = system: phosphorylation of ERK, KRAS G12V in SW620; test: pERK inhibition assay, KRAS G12V; type: cell-based, human; settings: Homo sapiens, SW-620, SW620, 4 hours
In short: as §2

[10] = system: AGS (ATCC-CRL-1739) cells; test: Cell viability assay, G12D (AGS); type: cell-based, human; settings: Homo sapiens, KRAS cell viability, 72 hrs, Cell Counting Kit-8
In short: as §1

SW620 (ATCC-CCL-227) = test: Cell viability assay, G12V (SW620); type: cell-based, human; settings: Homo sapiens, SW-620; KRAS cell viability, SW620, 72 hrs, Cell Counting Kit-8
In short: as §1

KRAS G12C-BRAF complex [11] = target: T1, KRAS G12C-BRAF complex; test: KRAS G12C-BRAF NanoBit assay; type: cell-based; settings: HEK293 cells, 3 hours of incubation
Method: This assay is to measure the ability of tested compounds in disruption of the KRAS G12C-BRAF complex at the cellular level, we established the NanoBit cellular assay in mammalian HEK293 (ATCC) cells.
HEK293 cells were grown and maintained using DMEM medium (Thermo Fisher Scientific) with 10% fetal bovine serum and 1% penicillin/streptomycin. Both KRAS G12C and BRAF RBD were cloned into the NanoBit vectors ([…] vectors system, Promega) with the orientations SnmBit-KRAS G12C and BRAF RBD-LgBit, respectively, and co-transfected into HEK293 cells. Cells were then selected with 100 μg/mL Hygromycin B (10687010, Thermo Fisher) and Blasticidin (5 μg/mL) for 4 weeks to get the stable cell pool.
On the day of the assay, 75 nL of compound solution was presented in a 384-well assay plate as a 16-point 3-fold dilution starting from a final concentration of 30 μM in DMSO. Then cells were seeded at 10,000 cells/25 μL/well in a 384-well plate. After 3 hours of incubation, 6 μL of volume of Nano-Glo® Live Cell Substrate (Promega) was added into each well. Monitor luminescence using ultra384 model in Envision at 20 minutes. Compounds that facilitate disruption of the KRAS G12C-BRAF RBD complex were identified as those eliciting a decrease of luminescence relative to DMSO control wells.

T1 sequence (P01116-2 other isoform, or with tags, fused parts or gaps G12C): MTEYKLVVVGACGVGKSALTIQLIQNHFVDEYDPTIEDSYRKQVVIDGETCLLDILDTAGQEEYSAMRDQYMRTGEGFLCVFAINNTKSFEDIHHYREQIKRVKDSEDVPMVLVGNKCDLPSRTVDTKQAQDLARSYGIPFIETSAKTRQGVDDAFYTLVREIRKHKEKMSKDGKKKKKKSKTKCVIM
T1 sequence (P62937 whole entry): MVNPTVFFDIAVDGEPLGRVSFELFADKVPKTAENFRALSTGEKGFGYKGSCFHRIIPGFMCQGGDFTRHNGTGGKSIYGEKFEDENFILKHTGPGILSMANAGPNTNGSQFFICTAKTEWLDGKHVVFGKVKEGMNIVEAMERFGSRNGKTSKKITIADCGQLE
Chain of KRAS G12D binding to BRAF (P01116-2 other isoform, or with tags, fused parts or gaps G12D): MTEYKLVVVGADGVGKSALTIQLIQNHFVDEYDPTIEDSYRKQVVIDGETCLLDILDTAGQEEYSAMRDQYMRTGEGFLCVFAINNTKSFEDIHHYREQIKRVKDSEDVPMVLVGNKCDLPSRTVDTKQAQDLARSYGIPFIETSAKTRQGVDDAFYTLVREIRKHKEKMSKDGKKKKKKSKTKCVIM
Chain of KRAS G12D binding to BRAF (P62937 whole entry): as the sequence (P62937 whole entry) above
Chain of KRAS G12V binding to BRAF (P01116-2 other isoform, or with tags, fused parts or gaps G12V): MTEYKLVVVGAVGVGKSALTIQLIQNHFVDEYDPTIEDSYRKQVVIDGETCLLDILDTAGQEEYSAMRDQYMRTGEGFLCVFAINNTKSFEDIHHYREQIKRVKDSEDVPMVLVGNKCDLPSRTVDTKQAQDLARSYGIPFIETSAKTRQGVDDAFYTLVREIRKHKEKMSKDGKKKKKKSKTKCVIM
Chain of KRAS G12V binding to BRAF (P62937 whole entry): as the sequence (P62937 whole entry) above

| CL_hep (Human) [3] | IC50 [5] | IC50 [6] | IC50 [7] | IC50 [9] | IC50 [10] | IC50 (SW620 (ATCC-CCL-227)) | SMILES | Clearance Category [3] | further results |
| --- | --- | --- | --- | --- | --- | --- | --- | --- | --- |
| – | – | – | – | – | – | – | CCn1c(-c2cc(N3CCOCC3)cnc2[C@H](C)OC)c2c3cc(c(F)cc31)-c1csc(n1)C[C@H](NC(=O)OC(C)(C)C)C(=O)N1CCC[C@H](N1)C(=O)OCC(C)(C)C2 | – | ring closure, yield of all isomers ([1]; from CCn1c(-c2cc(N3CCOCC3)cnc2[C@H](C)OC)c(CC(C)(C)CO)c2cc(-c3csc(C[C@H](NC(=O)OC(C)(C)C)C(=O)N4CCC[C@@H](C(=O)O)N4)n3)c(F)cc21, 11.72 mM, 20.0 °C, 12.0 h): 49.1% |
| – | – | – | – | – | – | – | CO[C@@H](C)c1ncc(N2CCN(C(=O)OCc3ccccc3)CC2)cc1-c1c2c3cc(c(F)cc3n1CC(F)(F)F)-c1cc(cc(O[Si](C(C)C)(C(C)C)C(C)C)c1)C[C@H](NC(=O)OC(C)(C)C)C(=O)N1CCC[C@H](N1)C(=O)OCC(C)(C)C2 | – | ring closure, yield of all isomers ([1]; from CO[C@@H](C)c1ncc(N2CCN(C(=O)OCc3ccccc3)CC2)cc1-c1c(CC(C)(C)CO)c2cc(-c3cc(C[C@H](NC(=O)OC(C)(C)C)C(=O)N4CCC[C@@H](C(=O)O)N4)cc(O[Si](C(C)C)(C(C)C)C(C)C)c3)c(F)cc2n1CC(F)(F)F, 8.33 mM, 15.0 °C, 12.0 h): 74.2% |
| – | – | – | – | – | – | – | CO[C@@H](C)c1ncc(N2CCN(C(=O)OCc3ccccc3)CC2)cc1-c1c2c3cc(c(F)cc3n1CC(F)(F)F)-c1csc(n1)C[C@H](NC(=O)OC(C)(C)C)C(=O)N1CCC[C@H](N1)C(=O)OCC(C)(C)C2 | – | ring closure, yield of all isomers ([1]; from CO[C@@H](C)c1ncc(N2CCN(C(=O)OCc3ccccc3)CC2)cc1-c1c(CC(C)(C)CO)c2cc(-c3csc(C[C@H](NC(=O)OC(C)(C)C)C(=O)N4CCC[C@@H](C(=O)O)N4)n3)c(F)cc2n1CC(F)(F)F, 9.63 mM, 15.0 °C, 12.0 h): 73.4% |
| – | – | – | – | – | – | – | CO[C@@H](C)c1ncc(N2CCOCC2)cc1-c1c2c3cc(c(F)cc3n1CC(F)(F)F)-c1csc(n1)C[C@H](NC(=O)OC(C)(C)C)C(=O)N1CCC[C@H](N1)C(=O)OCC(C)(C)C2 | – | ring closure, yield of all isomers ([1]; from CO[C@@H](C)c1ncc(N2CCOCC2)cc1-c1c(CC(C)(C)CO)c2cc(-c3csc(C[C@H](NC(=O)OC(C)(C)C)C(=O)N4CCC[C@@H](C(=O)O)N4)n3)c(F)cc2n1CC(F)(F)F, 12.0 mM, 20.0 °C, 15.0 h): 81.3% |
| 6.4 mL/min/kg | 2 nM | 2 nM | 110 nM | 48 nM | 1280 nM | 635 nM | CO[C@@H](C)c1ncc(N2CCN(C)CC2)cc1-c1c2c3cc(c(F)cc3n1CC(F)(F)F)-c1csc(n1)C[C@H](NC(=O)[C@H](C(C)C)N1CC[C@@]3(CCN(C(=O)[C@H](F)Cl)C3)C1=O)C(=O)N1CCC[C@H](N1)C(=O)OCC(C)(C)C2 (atropisomer, axis not shown; (M)) [Example 4, (2S)-2-[(5R)-7-[(2R)-2-chloro-2-fluoro-acetyl]-1-oxo-2,7-diazaspiro[4.4]nonan-2-yl]-N-[(7S,13S)-24-fluoro-(20M)-20-[2-[(1S)-1-methoxyethyl]-5-(4-methylpiperazin-1-yl)-3-pyridyl]-17,17-dimethyl-8,14-dioxo-21-(2,2,2-trifluoroethyl)-15-oxa-4-thia-9,21,27,28-tetrazapentacyclo[17.5.2.1^2,5.1^9,13.0^22,26]octacosa-1(25),2,5(28),19,22(26),23-hexaen-7-yl]-3-methyl-butanamide] | low (CL_hep (mL/min/kg)<6.96 is low clearance) | IC50 [2]: > 10000 nM; IC50 (KRAS G12C-BRAF complex [4]): 122 nM; IC50 [8]: 4370 nM |
| 13.4 mL/min/kg | 1 nM | 1 nM | 21 nM | 24 nM | 76 nM | 21 nM | CO[C@@H](C)c1ncc(N2CCN(C)CC2)cc1-c1c2c3cc(c(F)cc3n1CC(F)(F)F)-c1csc(n1)C[C@H](NC(=O)[C@H](C(C)C)N1CCCC3(CCN(C(=O)[C@H](F)Cl)CC3)C1=O)C(=O)N1CCC[C@H](N1)C(=O)OCC(C)(C)C2 (atropisomer, axis not shown; (M)) [Example 6, (2S)-2-[9-[(2R)-2-chloro-2-fluoro-acetyl]-1-oxo-2,9-diazaspiro[5.5]undecan-2-yl]-N-[(7S,13S)-24-fluoro-(20M)-20-[2-[(1S)-1-methoxyethyl]-5-(4-methylpiperazin-1-yl)-3-pyridyl]-17,17-dimethyl-8,14-dioxo-21-(2,2,2-trifluoroethyl)-15-oxa-4-thia-9,21,27,28-tetrazapentacyclo[17.5.2.1^2,5.1^9,13.0^22,26]octacosa-1(25),2,5(28),19,22(26),23-hexaen-7-yl]-3-methyl-butanamide] | medium (16.24>CL_hep (mL/min/kg)>6.96 is medium clearance) | – |
| 10.9 mL/min/kg | < 1 nM | – | – | – | 3240 nM | 771 nM | CO[C@@H](C)c1ncc(N2CCN(C)CC2)cc1-c1c2c3cc(c(F)cc3n1CC(F)(F)F)-c1csc(n1)C[C@H](NC(=O)[C@H](C(C)C)N1CCC3(CCN(C(=O)[C@H](F)Cl)CC3)C1=O)C(=O)N1CCC[C@H](N1)C(=O)OCC(C)(C)C2 (atropisomer, axis not shown; (M)) [Example 15, (2S)-2-[8-[(2R)-2-chloro-2-fluoro-acetyl]-1-oxo-2,8-diazaspiro[4.5]decan-2-yl]-N-[(7S,13S)-24-fluoro-(20M)-20-[2-[(1S)-1-methoxyethyl]-5-(4-methylpiperazin-1-yl)-3-pyridyl]-17,17-dimethyl-8,14-dioxo-21-(2,2,2-trifluoroethyl)-15-oxa-4-thia-9,21,27,28-tetrazapentacyclo[17.5.2.1^2,5.1^9,13.0^22,26]octacosa-1(25),2,5(28),19,22(26),23-hexaen-7-yl]-3-methyl-butanamide] | medium (16.24>CL_hep (mL/min/kg)>6.96 is medium clearance) | IC50 (KRAS G12C-BRAF complex [11]): 32 nM |
| <2.4 mL/min/kg | – | > 10000 nM | > 10000 nM | > 10000 nM | – | – | CC(C)[C@@H](C(=O)N[C@H]1Cc2cc(O)cc(c2)-c2ccc3c(C(C)(C)C#N)cn(c3c2)CC(C)(C)COC(=O)[C@@H]2CCCN(N2)C1=O)N1CCC2(CN(C(=O)[C@H](F)Cl)C2)C1=O [RM44-A, reference compound] | low (CL_hep (mL/min/kg)<6.96 is low clearance) | IC50 (KRAS G12C-BRAF complex [11]): 1150 nM; IC50 [2]: > 10000 nM; IC50 (KRAS G12C-BRAF complex [4]): 779 nM; IC50 [8]: > 10000 nM |
